Values of other authors, collected in publication PMC7682800 (Arteriosclerosis, Thrombosis, and Vascular Biology, 2020).

Test system: PAR1
Settings: oral administration

Q: For `CCOC(=O)N[C@@H]1CC[C@@H]2[C@@H](C1)C[C@H]1C(=O)O[C@H](C)[C@H]1[C@H]2/C=C/c1ccc(-c2cccc(F)c2)cn1` [vorapaxar], which Pharmacodynamic half-life is on record?
A: ≥ 4 weeks
